According to ChEMBL document CHEMBL4804281, “STK4 inhibitors for treatment of hematologic malignancies” (2020):

Experiments:
Assay type in all cases: cell-based
[1] = target: Mitogen-activated protein kinase 1 (Homo sapiens) (UniProt P28482); assay: Inhibition of ERK2 in human NCI-H929 cells at 10 uM by mass spectroscopic analysis relative to control
[2] = target: Maternal embryonic leucine zipper kinase (Homo sapiens) (UniProt Q14680); assay: Inhibition of MELK in human NCI-H929 cells at 10 uM by mass spectroscopic analysis relative to control
Sequence of Maternal embryonic leucine zipper kinase (Homo sapiens) (Q14680 whole entry, looked up): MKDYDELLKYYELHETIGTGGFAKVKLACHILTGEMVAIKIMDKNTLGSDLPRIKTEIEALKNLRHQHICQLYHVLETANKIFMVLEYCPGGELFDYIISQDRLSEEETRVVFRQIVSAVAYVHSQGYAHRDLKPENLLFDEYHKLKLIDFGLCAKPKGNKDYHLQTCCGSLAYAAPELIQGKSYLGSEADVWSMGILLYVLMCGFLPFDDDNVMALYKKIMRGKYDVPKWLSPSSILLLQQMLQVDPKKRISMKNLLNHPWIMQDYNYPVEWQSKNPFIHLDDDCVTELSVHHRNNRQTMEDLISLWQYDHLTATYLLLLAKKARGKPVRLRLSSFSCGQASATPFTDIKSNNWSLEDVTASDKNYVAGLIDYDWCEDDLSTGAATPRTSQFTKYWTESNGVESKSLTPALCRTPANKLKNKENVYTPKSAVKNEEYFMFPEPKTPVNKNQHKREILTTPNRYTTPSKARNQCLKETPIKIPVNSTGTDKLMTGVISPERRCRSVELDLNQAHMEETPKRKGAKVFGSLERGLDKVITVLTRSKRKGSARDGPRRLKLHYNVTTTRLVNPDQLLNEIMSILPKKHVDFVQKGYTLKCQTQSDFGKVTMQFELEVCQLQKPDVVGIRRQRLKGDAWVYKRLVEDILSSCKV

[3] = target: Serine/threonine-protein kinase Nek9 (Homo sapiens) (UniProt Q8TD19); assay: Inhibition of NEK9 in human NCI-H929 cells at 10 uM by mass spectroscopic analysis relative to control
Sequence of Serine/threonine-protein kinase Nek9 (Homo sapiens) (Q8TD19 whole entry): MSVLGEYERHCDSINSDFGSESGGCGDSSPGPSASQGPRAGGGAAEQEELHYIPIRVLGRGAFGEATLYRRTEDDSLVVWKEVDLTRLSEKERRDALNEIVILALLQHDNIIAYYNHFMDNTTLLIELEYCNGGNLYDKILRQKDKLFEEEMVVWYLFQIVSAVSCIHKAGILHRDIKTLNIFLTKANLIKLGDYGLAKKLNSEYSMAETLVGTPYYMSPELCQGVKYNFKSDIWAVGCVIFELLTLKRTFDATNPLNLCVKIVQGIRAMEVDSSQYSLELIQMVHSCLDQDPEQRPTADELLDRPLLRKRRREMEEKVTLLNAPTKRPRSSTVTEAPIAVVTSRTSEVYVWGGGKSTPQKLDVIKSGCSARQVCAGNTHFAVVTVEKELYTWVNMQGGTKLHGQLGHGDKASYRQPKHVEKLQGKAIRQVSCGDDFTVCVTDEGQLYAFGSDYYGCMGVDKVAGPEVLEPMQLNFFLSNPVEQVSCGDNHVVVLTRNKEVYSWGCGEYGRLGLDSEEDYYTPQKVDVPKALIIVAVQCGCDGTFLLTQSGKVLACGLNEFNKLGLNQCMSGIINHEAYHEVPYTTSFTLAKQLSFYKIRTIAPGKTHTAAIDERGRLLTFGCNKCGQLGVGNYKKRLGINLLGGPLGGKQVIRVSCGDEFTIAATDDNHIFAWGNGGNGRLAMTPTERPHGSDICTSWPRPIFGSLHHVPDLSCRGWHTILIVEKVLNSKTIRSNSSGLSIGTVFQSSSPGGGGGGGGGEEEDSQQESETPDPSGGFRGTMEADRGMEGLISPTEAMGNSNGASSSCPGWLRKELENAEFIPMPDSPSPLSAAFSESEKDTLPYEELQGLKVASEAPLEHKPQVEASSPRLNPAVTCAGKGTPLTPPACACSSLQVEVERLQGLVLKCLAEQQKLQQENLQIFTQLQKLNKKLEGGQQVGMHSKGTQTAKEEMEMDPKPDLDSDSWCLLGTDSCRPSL

[4] = target: Glycogen synthase kinase-3 beta (Homo sapiens) (UniProt P49841); assay: Inhibition of GSK3B in human NCI-H929 cells at 10 uM by mass spectroscopic analysis relative to control
Sequence of Glycogen synthase kinase-3 beta (Homo sapiens) (P49841 whole entry, looked up, canonical isoform): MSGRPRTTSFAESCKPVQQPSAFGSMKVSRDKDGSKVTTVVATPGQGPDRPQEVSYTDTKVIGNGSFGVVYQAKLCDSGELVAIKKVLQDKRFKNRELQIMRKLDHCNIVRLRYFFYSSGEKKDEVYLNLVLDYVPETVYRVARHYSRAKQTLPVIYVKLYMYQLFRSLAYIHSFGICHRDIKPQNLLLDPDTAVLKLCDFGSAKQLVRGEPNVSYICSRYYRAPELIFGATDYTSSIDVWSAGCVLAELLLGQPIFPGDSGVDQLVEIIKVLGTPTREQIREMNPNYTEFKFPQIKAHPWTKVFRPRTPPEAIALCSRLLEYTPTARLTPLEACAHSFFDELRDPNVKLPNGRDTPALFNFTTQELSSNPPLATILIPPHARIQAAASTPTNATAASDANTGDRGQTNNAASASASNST

[5] = target: Casein kinase I isoform alpha (Homo sapiens) (UniProt P48729); assay: Inhibition of CK1a in human NCI-H929 cells at 10 uM by mass spectroscopic analysis relative to control
Sequence of Casein kinase I isoform alpha (Homo sapiens) (P48729 2-337 limits assumed): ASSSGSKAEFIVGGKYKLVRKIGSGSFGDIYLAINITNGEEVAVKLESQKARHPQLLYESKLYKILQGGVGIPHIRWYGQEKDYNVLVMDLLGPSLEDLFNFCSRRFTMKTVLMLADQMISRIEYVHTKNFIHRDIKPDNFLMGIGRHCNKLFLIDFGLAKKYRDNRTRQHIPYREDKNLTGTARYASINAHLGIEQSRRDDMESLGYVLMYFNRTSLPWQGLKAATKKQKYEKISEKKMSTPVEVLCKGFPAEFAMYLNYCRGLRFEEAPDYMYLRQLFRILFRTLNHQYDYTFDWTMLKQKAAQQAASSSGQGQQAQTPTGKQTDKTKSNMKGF

[6] = target: T1, Serine/threonine-protein kinase 4 (Homo sapiens) (UniProt Q13043); assay: Inhibition of MST1 in human NCI-H929 cells at 10 uM by mass spectroscopic analysis relative to control
T1 sequence (whole entry): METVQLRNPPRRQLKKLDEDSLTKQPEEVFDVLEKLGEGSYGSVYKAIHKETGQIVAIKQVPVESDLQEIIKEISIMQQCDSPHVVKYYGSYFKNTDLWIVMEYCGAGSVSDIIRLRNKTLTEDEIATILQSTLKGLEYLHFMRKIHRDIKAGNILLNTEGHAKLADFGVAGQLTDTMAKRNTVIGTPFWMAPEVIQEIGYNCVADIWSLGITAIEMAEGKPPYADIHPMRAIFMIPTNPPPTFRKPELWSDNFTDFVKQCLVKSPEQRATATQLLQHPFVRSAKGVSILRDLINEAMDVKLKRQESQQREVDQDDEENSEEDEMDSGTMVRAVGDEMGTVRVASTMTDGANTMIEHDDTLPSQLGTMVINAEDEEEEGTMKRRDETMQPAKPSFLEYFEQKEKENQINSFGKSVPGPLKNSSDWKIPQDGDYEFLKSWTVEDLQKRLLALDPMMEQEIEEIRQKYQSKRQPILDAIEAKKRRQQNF

[7] = target: Mitogen-activated protein kinase kinase kinase 11 (Homo sapiens) (UniProt Q16584); assay: Inhibition of MLK3 in human NCI-H929 cells at 10 uM by mass spectroscopic analysis relative to control
Sequence of Mitogen-activated protein kinase kinase kinase 11 (Homo sapiens) (Q16584 whole entry, looked up, the tested form may be a part): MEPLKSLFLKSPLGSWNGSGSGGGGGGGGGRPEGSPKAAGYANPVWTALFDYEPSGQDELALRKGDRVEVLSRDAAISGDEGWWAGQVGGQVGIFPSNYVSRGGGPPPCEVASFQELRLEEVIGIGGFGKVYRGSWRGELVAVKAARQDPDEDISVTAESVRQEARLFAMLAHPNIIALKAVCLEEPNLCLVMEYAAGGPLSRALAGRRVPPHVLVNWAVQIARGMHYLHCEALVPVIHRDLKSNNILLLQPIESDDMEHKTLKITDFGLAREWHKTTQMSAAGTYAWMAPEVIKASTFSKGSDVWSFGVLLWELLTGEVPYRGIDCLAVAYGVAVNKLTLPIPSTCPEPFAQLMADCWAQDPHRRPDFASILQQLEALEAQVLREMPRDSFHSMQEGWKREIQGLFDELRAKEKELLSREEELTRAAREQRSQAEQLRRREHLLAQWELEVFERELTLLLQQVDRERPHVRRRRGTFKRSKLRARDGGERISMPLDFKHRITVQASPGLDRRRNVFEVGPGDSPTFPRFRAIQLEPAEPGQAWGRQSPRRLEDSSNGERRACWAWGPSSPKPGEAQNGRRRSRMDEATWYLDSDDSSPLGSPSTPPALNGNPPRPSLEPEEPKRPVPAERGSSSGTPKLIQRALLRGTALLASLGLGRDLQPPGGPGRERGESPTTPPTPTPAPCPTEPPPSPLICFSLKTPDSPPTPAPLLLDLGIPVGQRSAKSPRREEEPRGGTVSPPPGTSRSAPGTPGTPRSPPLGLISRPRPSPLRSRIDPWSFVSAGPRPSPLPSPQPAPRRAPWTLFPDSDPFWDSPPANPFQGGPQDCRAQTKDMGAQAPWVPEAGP

[8] = target: Ribosomal protein S6 kinase alpha-4 (Homo sapiens) (UniProt O75676); assay: Inhibition of MSK2 domain 1 in human NCI-H929 cells at 10 uM by mass spectroscopic analysis relative to control
Sequence of Ribosomal protein S6 kinase alpha-4 (Homo sapiens) (O75676 whole entry, looked up, the tested form may be a part): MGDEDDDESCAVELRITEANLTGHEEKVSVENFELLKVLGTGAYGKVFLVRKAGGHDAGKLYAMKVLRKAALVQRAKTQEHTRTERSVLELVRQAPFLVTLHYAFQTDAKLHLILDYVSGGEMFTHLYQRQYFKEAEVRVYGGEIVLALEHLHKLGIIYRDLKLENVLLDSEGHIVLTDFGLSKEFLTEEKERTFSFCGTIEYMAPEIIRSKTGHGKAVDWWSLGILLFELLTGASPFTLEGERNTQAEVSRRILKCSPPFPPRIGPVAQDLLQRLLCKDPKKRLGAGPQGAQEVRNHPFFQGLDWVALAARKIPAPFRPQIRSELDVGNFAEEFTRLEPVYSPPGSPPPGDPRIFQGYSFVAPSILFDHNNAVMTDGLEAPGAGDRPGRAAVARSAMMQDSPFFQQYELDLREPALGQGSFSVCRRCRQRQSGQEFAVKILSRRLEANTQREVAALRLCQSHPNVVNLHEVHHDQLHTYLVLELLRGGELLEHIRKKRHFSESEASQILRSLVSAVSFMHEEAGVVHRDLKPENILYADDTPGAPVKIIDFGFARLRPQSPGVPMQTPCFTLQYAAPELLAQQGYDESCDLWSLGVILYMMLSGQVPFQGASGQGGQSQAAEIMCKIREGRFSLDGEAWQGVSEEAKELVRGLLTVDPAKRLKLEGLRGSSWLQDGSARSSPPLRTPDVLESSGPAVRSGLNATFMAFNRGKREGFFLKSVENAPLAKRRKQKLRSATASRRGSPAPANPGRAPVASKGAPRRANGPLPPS

[9] = target: Cyclin-G-associated kinase (Homo sapiens) (UniProt O14976); assay: Inhibition of GAK in human NCI-H929 cells at 10 uM by mass spectroscopic analysis relative to control

Sequence of Mitogen-activated protein kinase 1 (Homo sapiens) (P28482 whole entry): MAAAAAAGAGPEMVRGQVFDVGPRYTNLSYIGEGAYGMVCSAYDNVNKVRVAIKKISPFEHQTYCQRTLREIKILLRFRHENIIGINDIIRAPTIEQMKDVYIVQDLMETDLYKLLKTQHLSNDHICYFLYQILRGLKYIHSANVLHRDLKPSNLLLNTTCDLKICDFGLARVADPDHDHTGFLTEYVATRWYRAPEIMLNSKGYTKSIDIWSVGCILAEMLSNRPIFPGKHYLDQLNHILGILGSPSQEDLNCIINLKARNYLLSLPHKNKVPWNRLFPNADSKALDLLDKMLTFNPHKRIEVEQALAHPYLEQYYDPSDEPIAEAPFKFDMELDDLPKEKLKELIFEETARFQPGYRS

Nc1ncc(-c2cccc3ncsc23)cc1-c1ccc2c(c1)CCNC2=O
inhibition [1]: 50%

Nc1ncc(-c2ccc(NS(=O)(=O)C3CC3)cc2OC2CCCCC2)cc1-c1ccc2c(c1)CCNC2=O
inhibition [2]: 50%

COc1cc(NS(=O)(=O)C2CC2)ccc1-c1cnc(N)c(-c2ccc3c(c2)CCNC3=O)c1
inhibition [3]: 50% | inhibition [4]: > 90% | inhibition [5]: 75% | inhibition [6]: 0% | inhibition [7]: 0% | inhibition [8]: > 90% | inhibition [9]: 50%
